Results published in ChEMBL document CHEMBL4680292, “Neothalfine, a potent natural anti-tumor agent against metastatic colorectal cancer and its primary mechanism” (Bioorg Med Chem, 2021).
Activity calls are given as the source filed them. The calls are words filed in the database; no cut-off is given here.

Columns and labels:
[1] = tested on: T84; test: Anticancer activity against human T84 cells assessed as inhibition of cell proliferation measured after 72 hrs by MTT assay; format: functional, cell-based; settings: T84, 72 h
[2] = tested on: SW-620; test: Inhibition of colony formation in human SW-620 cells assessed as effect on tumor sphere formation at 30 nM by crystal violet staining based microscopic analysis; format: functional, cell-based
[3] = tested on: SW-620; test: Induction apoptosis in human SW-620 cells assessed as increase in live cells at 6 uM measured after 72 hrs by Annexin VFITC /PI staining with flow cytometry (reference value: 92.6%); format: functional
[4] = tested on: SW-620; test: Induction apoptosis in human SW-620 cells assessed as increase in late apoptotic cells at 12 uM measured after 72 hrs by Annexin VFITC /PI staining with flow cytometry (reference value: 3.18%); format: functional
[5] = tested on: HCT-116; test: Anticancer activity against human HCT-116 cells assessed as inhibition of cell proliferation measured after 72 hrs by MTT assay; format: functional, cell-based; settings: HCT-116, 72 h
[6] = tested on: SW-620; test: Induction apoptosis in human SW-620 cells assessed as increase in necrotic cells apoptotic cells at 6 uM measured after 72 hrs by Annexin VFITC /PI staining with flow cytometry (reference value: 0.24%); format: functional
[7] = tested on: SW-620; test: Induction apoptosis in human SW-620 cells assessed as increase in necrotic cells apoptotic cells at 12 uM measured after 72 hrs by Annexin VFITC /PI staining with flow cytometry (reference value: 0.24%); format: functional
[8] = tested on: SW-620; test: Induction apoptosis in human SW-620 cells assessed as increase in early apoptotic cells at 6 uM measured after 72 hrs by Annexin VFITC /PI staining with flow cytometry (reference value: 4.08%); format: functional
[9] = tested on: SW-620; test: Induction of cell cycle arrest in human SW-620 cells assessed as increase in number of cells at G2/M phase at 6 uM measured after 72 hrs by PI staining using flow cytometry (reference value: 27.08%); format: functional
[10] = tested on: SW-620; test: Induction of cell cycle arrest in human SW-620 cells assessed as increase in number of cells at G0/G1 phase at 6 uM measured after 72 hrs by PI staining using flow cytometry (reference value: 60.05%); format: functional
[11] = tested on: SW-620; test: Induction apoptosis in human SW-620 cells assessed as increase in live cells at 12 uM measured after 72 hrs by Annexin VFITC /PI staining with flow cytometry (reference value: 92.6%); format: functional
[12] = tested on: SW-620; test: Anticancer activity against human SW-620 cells assessed as inhibition of cell proliferation measured after 72 hrs by MTT assay; format: functional, cell-based; settings: SW-620, 72 h
[13] = tested on: SW-620; test: Induction apoptosis in human SW-620 cells assessed as increase in late apoptotic cells at 6 uM measured after 72 hrs by Annexin VFITC /PI staining with flow cytometry (reference value: 3.18%); format: functional
[14] = tested on: SW-620; test: Induction apoptosis in human SW-620 cells assessed as increase in early apoptotic cells at 12 uM measured after 72 hrs by Annexin VFITC /PI staining with flow cytometry (reference value: 4.08%); format: functional
[15] = tested on: SW-620; test: Inhibition of colony formation in human SW-620 cells assessed as damaged tumor sphere at 3 to 6 uM by crystal violet staining based microscopic analysis; format: functional, cell-based; settings: dose 3-6 µM
[16] = tested on: MHCC97H; test: Cytotoxicity against human MHCC97H cells assessed as reduction in cell growth at 15 uM measured after 48 hrs; format: functional, cell-based
[17] = tested on: SW-620; test: Induction of cell cycle arrest in human SW-620 cells assessed as increase in number of cells at G2/M phase at 7 nM measured after 72 hrs by PI staining using flow cytometry (reference value: 27.08%); format: functional
[18] = tested on: MDA-MB-231; test: Anticancer activity against human MDA-MB-231 cells assessed as inhibition of cell proliferation measured after 72 hrs by MTT assay; format: functional, cell-based; settings: MDA-MB-231, 72 h
[19] = tested on: SW-620; test: Induction apoptosis in human SW-620 cells assessed as increase in live cells at 7 nM measured after 72 hrs by Annexin VFITC /PI staining with flow cytometry (reference value: 92.6%); format: functional
[20] = tested on: MDA-MB-231; test: Cytotoxicity against human MDA-MB-231 cells assessed as reduction in cell growth at 15 uM measured after 48 hrs; format: functional, cell-based
[21] = tested on: SW-620; test: Induction of mitochondrial membrane potential loss in human SW-620 cells at 3.5 nM by JC-1 staining based fluorescence microscopic analysis; format: functional, cell-based
[22] = tested on: SW-620; test: Inhibition of colony formation in human SW-620 cells assessed as damaged tumor spheres at 3.5 to 30 nM by crystal violet staining based microscopic analysis; format: functional, cell-based; settings: dose 3.5-30 nM
[23] = tested on: PC-3; test: Anticancer activity against human PC-3 cells assessed as inhibition of cell proliferation measured after 72 hrs by MTT assay; format: functional, cell-based; settings: PC-3, 72 h
[24] = tested on: SW-620; test: Induction of cell cycle arrest in human SW-620 cells assessed as increase in number of cells at G0/G1 phase at 7 nM measured after 72 hrs by PI staining using flow cytometry (reference value: 60.05%); format: functional
[25] = tested on: SW-620; test: Induction of apoptosis in human SW-620 cells assessed as increase in cleaved caspase 3/7 level at 3.5 nM relative to control; format: functional
[26] = tested on: HCT-116; test: Cytotoxicity against human HCT-116 cells assessed as reduction in cell growth at 15 uM measured after 48 hrs; format: functional, cell-based
[27] = tested on: T98G; test: Anticancer activity against human T98G cells assessed as inhibition of cell proliferation measured after 72 hrs by MTT assay; format: functional, cell-based
[28] = tested on: MHCC97H; test: Anticancer activity against human MHCC97H cells assessed as inhibition of cell proliferation measured after 72 hrs by MTT assay; format: functional, cell-based
[29] = tested on: SW-620; test: Induction apoptosis in human SW-620 cells assessed as increase in late apoptotic cells at 7 nM measured after 72 hrs by Annexin VFITC /PI staining with flow cytometry (reference value: 3.18%); format: functional
[30] = tested on: SMMC-7721; test: Cytotoxicity against human SMMC-7721 cells assessed as reduction in cell growth at 15 uM measured after 48 hrs; format: functional, cell-based
[31] = tested on: SW-620; test: Induction of apoptosis in human SW-620 cells assessed as increase in cleaved caspase 3/7 level at 11.5 nM relative to control; format: functional
[32] = tested on: NCI-H1299; test: Cytotoxicity against human NCI-H1299 cells assessed as reduction in cell growth at 15 uM measured after 48 hrs; format: functional, cell-based
[33] = tested on: SW-620; test: Induction apoptosis in human SW-620 cells assessed as increase in necrotic cells apoptotic cells at 15 nM measured after 72 hrs by Annexin VFITC /PI staining with flow cytometry (reference value: 0.24%); format: functional
[34] = tested on: SW-620; test: Induction apoptosis in human SW-620 cells assessed as increase in early apoptotic cells at 15 nM measured after 72 hrs by Annexin VFITC /PI staining with flow cytometry (reference value: 4.08%); format: functional
[35] = tested on: SW-620; test: Induction of apoptosis in human SW-620 cells assessed as increase in cleaved caspase 3/7 level at 15 nM relative to control; format: functional
[36] = tested on: SW-620; test: Induction of apoptosis in human SW-620 cells assessed as increase in cleaved caspase 3/7 level at 7 nM relative to control; format: functional
[37] = tested on: PC-3; test: Cytotoxicity against human PC-3 cells assessed as reduction in cell growth at 15 uM measured after 48 hrs; format: functional, cell-based
[38] = tested on: SW-620; test: Cytotoxicity against human SW-620 cells assessed as reduction in cell growth at 15 uM measured after 48 hrs; format: functional, cell-based
[39] = tested on: SW-620; test: Induction apoptosis in human SW-620 cells assessed as increase in late apoptotic cells at 15 nM measured after 72 hrs by Annexin VFITC /PI staining with flow cytometry (reference value: 3.18%); format: functional
[40] = tested on: T84; test: Cytotoxicity against human T84 cells reduction in cell growth at 15 uM measured after 48 hrs; format: functional, cell-based
[41] = tested on: SK-OV-3; test: Anticancer activity against human SK-OV-3 cells assessed as inhibition of cell proliferation measured after 72 hrs by MTT assay; format: functional, cell-based; settings: SK-OV-3, 72 h
[42] = tested on: SK-OV-3; test: Cytotoxicity against human SK-OV-3 cells assessed as reduction in cell growth at 15 uM measured after 48 hrs; format: functional, cell-based
[43] = tested on: T98G; test: Cytotoxicity against human T98G cells assessed as reduction in cell growth at 15 uM measured after 48 hrs; format: functional, cell-based
[44] = tested on: NCI-H1299; test: Anticancer activity against human NCI-H1299 cells assessed as inhibition of cell proliferation measured after 72 hrs by MTT assay; format: functional, cell-based; settings: NCI-H1299, 72 h
[45] = tested on: SW-620; test: Induction apoptosis in human SW-620 cells assessed as increase in live cells at 15 nM measured after 72 hrs by Annexin VFITC /PI staining with flow cytometry (reference value: 92.6%); format: functional
[46] = tested on: SMMC-7721; test: Anticancer activity against human SMMC-7721 cells assessed as inhibition of cell proliferation measured after 72 hrs by MTT assay; format: functional, cell-based; settings: SMMC-7721, 72 h
[47] = tested on: SW-620; test: Induction apoptosis in human SW-620 cells assessed as increase in necrotic cells apoptotic cells at 7 nM measured after 72 hrs by Annexin VFITC /PI staining with flow cytometry (reference value: 0.24%); format: functional
[48] = tested on: SW-620; test: Induction apoptosis in human SW-620 cells assessed as increase in early apoptotic cells at 7 nM measured after 72 hrs by Annexin VFITC /PI staining with flow cytometry (reference value: 4.08%); format: functional

CCc1c2c(nc3ccc(OC(=O)N4CCC(N5CCCCC5)CC4)cc13)-c1cc3c(c(=O)n1C2)COC(=O)[C@]3(O)CC [IRINOTECAN]
IC50 [1]: 6.9 nM
inhibition [2]: inactive
Activity [3]: 87.7%
Activity [4]: 5.3%
IC50 [5]: 4.4 nM
Activity [6]: 0.34%
Activity [7]: 0.34%
Activity [8]: 7.84%
Activity [9]: 55.12%
Activity [10]: 33.53%
Activity [11]: 81.18%
IC50 [12]: 5.1 nM
Activity [13]: 4.12%
Activity [14]: 13.18%
inhibition [15]: Active

COc1ccc2cc1Oc1ccc(cc1)Cc1nccc3c4c(c(OC)c(c13)Oc1c3c(cc(OC)c1OC)[C@H](C2)N(C)CC3)OCO4
IC50 [1]: 8.2 nM
Activity [16]: Active
Activity [17]: 41%
IC50 [18]: 467 nM
Activity [19]: 82.74%
Activity [20]: Active
Activity [21]: Active
inhibition [22]: Active
IC50 [23]: 661 nM
Activity [24]: 46.37%
fold change (FC) [25]: 3.3
Activity [26]: Active
IC50 [5]: 7.2 nM
IC50 [27]: 382 nM
IC50 [28]: 145 nM
Activity [29]: 7.36%
Activity [30]: Active
fold change (FC) [31]: 9.3
Activity [32]: Active
Activity [33]: 0.15%
Activity [34]: 26.2%
fold change (FC) [35]: 12.9
fold change (FC) [36]: 8.2
Activity [37]: Active
Activity [38]: Active
Activity [39]: 4.83%
Activity [40]: Active
IC50 [41]: 180 nM
IC50 [12]: 5.9 nM
Activity [42]: Active
Activity [43]: Active
IC50 [44]: 132 nM
Activity [45]: 69.82%
IC50 [46]: 73 nM
Activity [47]: 1.2%
Activity [48]: 8.7%

CC(=O)O[C@@]12CO[C@@H]1C[C@H](O)[C@@]1(C)C(=O)[C@H](O)C3=C(C)[C@@H](OC(=O)[C@H](O)[C@@H](NC(=O)OC(C)(C)C)c4ccccc4)C[C@@](O)([C@@H](OC(=O)c4ccccc4)[C@H]21)C3(C)C [DOCETAXEL ANHYDROUS]
IC50 [1]: 2.7 nM
IC50 [5]: 4 nM
IC50 [12]: 4.7 nM
